From PubChem BioAssay AID1645868 (Buhrlage Lab, Dana-Farber Cancer Institute and Novartis …, 2021)
Calls of active or inactive are those of the source.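 Rule for the calls: active = maximal percent inhibition of the deubiquitinase OTUD3 of at least 30% across the tested doses; inactive = the rest.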

Biological target: OTU domain-containing protein 3 (Homo sapiens) (UniProt Q5T2D3)
Assay: Validation of screening hits, potency titration, in vitro enzymatic, OTU domain-containing protein 3 DUB inhibitors (AID 1645868)
Details: purified OTUD3, ubiquitin-rhodamine cleavage fluorescence, 2 h

Sequence of OTU domain-containing protein 3 (Homo sapiens) (Q5T2D3 whole entry, looked up, the tested form may be a part): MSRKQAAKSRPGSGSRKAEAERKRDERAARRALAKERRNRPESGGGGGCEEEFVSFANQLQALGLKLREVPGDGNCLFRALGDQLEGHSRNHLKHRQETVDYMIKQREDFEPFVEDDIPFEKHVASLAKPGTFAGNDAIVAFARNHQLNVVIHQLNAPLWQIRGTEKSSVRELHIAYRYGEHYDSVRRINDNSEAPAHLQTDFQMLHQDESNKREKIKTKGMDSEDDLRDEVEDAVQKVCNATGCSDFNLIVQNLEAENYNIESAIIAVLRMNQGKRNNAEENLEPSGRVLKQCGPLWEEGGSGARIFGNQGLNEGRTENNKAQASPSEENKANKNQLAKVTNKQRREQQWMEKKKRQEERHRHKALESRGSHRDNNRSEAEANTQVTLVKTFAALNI

Structure (SMILES)	IC50
Cc1cccc(C(=O)N2CCN3Cc4ccccc4N(C)CC3C2)c1 (stereo unspecified)	> 50 µM (inactive)
O=C(CCSc1ccc(Cl)cc1)c1cccs1	21.5 µM
COc1ccccc1NC(=O)CNC(=O)c1nn(-c2ccc(OC)c(OC)c2)c(=O)c2ccccc12	38.8 µM
COc1ccccc1-c1nc2c3c(C)c(C)n(-c4ccc(Br)cn4)c3ncn2n1	> 50 µM (inactive)
COc1ccc(NC(=O)Cn2c(CS(=O)(=O)c3ccc(C)cc3)nc3ccccc32)cc1	25.7 µM
O=C(Cn1cnc2c(oc3ccccc32)c1=O)NCc1ccccc1Cl	36.7 µM
Cc1noc(NS(=O)(=O)c2ccc(NC(=O)CSc3ccc4ccccc4c3)cc2)c1C	> 50 µM (inactive)
O=C(Nc1nnc2n1CCCS2)c1cccc(Cl)c1	> 50 µM (inactive)
O=C(O)CCCCCN1C(=O)CC(c2ccc(Cl)cc2)CC1=O	46.9 µM
Cc1nc(-c2noc(-c3ccncc3)n2)cn1CC(=O)N1CCN(c2ccc(F)cc2)CC1	> 50 µM (inactive)
O=C(COc1nc2ccccc2nc1N1CCOCC1)Nc1cccc(S(=O)(=O)N2CCCCC2)c1	> 50 µM (inactive)
Cc1cc(C(=O)CN2CCN(Cc3ccc4c(c3)OCO4)CC2)c(C)n1-c1ccc2c(c1)OCO2	> 50 µM (inactive)
O=c1sc2ccccc2c(=O)n1Cc1cccc(C(F)(F)F)c1	> 50 µM (inactive)
COc1cccc(C(=O)Nc2ccc(-n3cnnn3)cc2)c1	> 50 µM (inactive)
Cc1ccc(-c2nc(NC(=O)COc3ccc(Cl)cc3)no2)cc1	20.6 µM
CCCCCn1c(Sc2ccc(C)cc2)nc2c1c(=O)[nH]c(=O)n2C	35.1 µM
Cc1ccc(C)c(-n2c(C)cc(/C=C3/C(=N)N4C(c5ccc(F)cc5)=CSC4=NC3=O)c2C)c1	> 50 µM (inactive)
Cn1ccnc1CN1C[C@H]2CCN(c3ncccn3)C[C@H]2C1	> 50 µM (inactive)
O=C(Nc1ccc2c(c1)N(C(=O)C1CCCC1)CC2)c1c(F)cccc1F	> 50 µM (inactive)
Cc1cnc2nc3c(cc2c1)CN(S(=O)(=O)c1cc(F)ccc1C)CC3	> 50 µM (inactive)
COc1ccc(-c2cc3c(=O)n(CC(=O)Nc4ccccc4F)ccn3n2)cc1OC	> 50 µM (inactive)
COc1ccc(C2SCC(=O)Nc3c2c(=O)[nH]n3C2CCCCCC2)cc1 (stereo unspecified)	30.1 µM

Structure (SMILES)	IC50
O=C1CC(c2ccco2)Cc2[nH]c(=O)c(-c3nc(-c4ccc(Cl)cc4)cs3)cc21 (stereo unspecified)	> 50 µM (inactive)
Cc1cc(NC(=O)c2[nH]nc3c2CCc2ccccc2-3)no1	37.9 µM
O=C(COc1ccc(Cl)cc1Cl)Nc1ccccc1-c1nc2ccccc2[nH]1	6.12 µM
N#Cc1cc2c(nc1SCC(=O)NCc1ccccc1)CCCC2	> 50 µM (inactive)
COc1ccc(CCN2COc3c(cc(Cl)c4cccnc34)C2)cc1OC	21.7 µM
COc1ccc(CC(=O)Nc2cccc(-c3nc4ncccc4o3)c2)cc1OC	> 50 µM (inactive)
CS(=O)(=O)n1nc(NCc2ccc(F)cc2)nc1NCc1ccc(F)cc1	> 50 µM (inactive)
Cc1ccc(NC(=O)c2sc3ncn(CC(=O)N4CCN(c5ccccn5)CC4)c(=O)c3c2C)c(Br)c1	37.9 µM
COc1ccccc1CNC(=O)c1c(O)c2cnn(-c3cccc(C)c3)c2[nH]c1=O	> 50 µM (inactive)
Cc1c(-c2nnc(-c3ccccc3Cl)o2)nnn1-c1ccccc1	> 50 µM (inactive)
CC(=O)Nc1ccc(Cc2nc(-c3ccc4c(c3)nc(C)c(=O)n4C3CCCC3)no2)cc1	> 50 µM (inactive)
COc1cc(NC(=O)Cn2c(=O)n(-c3ccc(CC(=O)NC4CCCC4)cc3)c(=O)c3ccccc32)cc(OC)c1	> 50 µM (inactive)
FC(F)(F)c1cccc(Nc2nnc(-c3cccnc3)s2)c1	> 50 µM (inactive)
Fc1cccc(Cn2cc(-c3noc(-c4ccncc4)n3)nn2)c1	> 50 µM (inactive)
O=C(CCc1nnc2n(Cc3ccccc3Cl)c(=O)c3ccccc3n12)NCc1ccccn1	> 50 µM (inactive)
CCCCc1ccc(-c2cc(C(=O)NCCN3CCOCC3)c3cc(Br)ccc3n2)cc1	23.4 µM
Cc1cnnn1-c1ccc(C(=O)Nc2ccc(Cl)cc2)cc1	> 50 µM (inactive)
COc1cccc(C(=O)NCc2[nH]nc3ccccc23)c1	> 50 µM (inactive)
Cc1cc2nc(/C=C/c3ccccc3)n(Cc3cccc(F)c3)c2cc1C	> 50 µM (inactive)
CC1CCN(c2cc(-n3cnc(C(=O)N4CCCCC4)c3)ncn2)CC1	> 50 µM (inactive)
CC(C)NC(=O)Cn1ccn2nc(-c3ccc(Cl)cc3)cc2c1=O	> 50 µM (inactive)
CC(=O)N1CCCC(c2nc(C)cc(-c3cc(F)ccc3C(=O)O)n2)C1 (stereo unspecified)	> 50 µM (inactive)

Structure (SMILES)	IC50
COc1ccc(NC(=O)C2[C@@H]3C(=O)N(C4CCCCC4)C(=O)[C@@H]3[C@H]3c4ccccc4C=CN23)cc1 (stereo partly specified)	> 50 µM (inactive)
CCOC(=O)C1C(c2ccc(Br)cc2)C2(C(=O)c3ccccc3C2=O)C2C=Cc3ccccc3N12 (stereo unspecified)	> 50 µM (inactive)
Cc1nc2cc(C(=O)NCCC3=CCCCC3)ccc2n1-c1cccc(F)c1	> 50 µM (inactive)
Cc1cccc(C(=O)Nc2ccc3c(c2)nc(CSc2nccc(C)n2)n3C)c1	> 50 µM (inactive)
O=C(Cn1nc2c3c4c(sc3ncn2c1=O)CCCCC4)Nc1ccc(Cl)cc1F	17.6 µM
COCCCNC(=O)Cn1c(=O)n(Cc2ccc(C(=O)NCc3ccccc3OC)cc2)c(=O)c2ccccc21	> 50 µM (inactive)
Cc1cccc(-n2ccnc(SCC(=O)Nc3ccc(Cl)cc3F)c2=O)c1	27.7 µM
CCn1cc(NC(=O)CN2CCC3(CC=CCOC3)CC2)c(C)n1	> 50 µM (inactive)
COc1cccc(NC(=O)Nc2ccc3nc4n(c(=O)c3c2)CCCC4)c1	> 50 µM (inactive)
Cc1ccc2c(c1)-c1c(c(C(=O)N3CCN(c4ccccc4)CC3)nn1C)CS2	> 50 µM (inactive)
c1ccc(CCN2CCc3nc4cccnc4cc3C2)nc1	> 50 µM (inactive)
CC1(C)C[C@@H](O)[C@]2(C)CC[C@]3(C)C(=CCC4[C@@]5(C)CC[C@H](O)[C@](C)(CO)[C@@H]5CC[C@]43C)[C@@H]2C1 (stereo partly specified)	> 50 µM (inactive)
O=C(Nc1ccc(Br)cn1)c1nc2ccccc2nc1N1CCCCC1	> 50 µM (inactive)
NS(=O)(=O)c1ccc(Cl)c(C(=O)OCc2csc(Nc3ccccc3)n2)c1	> 50 µM (inactive)
CCOc1ccc2c(c1)c(=O)c(C(=O)c1ccccc1)cn2CC(=O)Nc1ccc2c(c1)OCCO2	43 µM
Cc1ncncc1C(=O)N1CCCC(C)(c2ncc(Cc3cccc(F)c3)o2)C1 (stereo unspecified)	> 50 µM (inactive)
CC(C)=CCC/C(C)=C/Cc1c(O)cc2c(c1O)C(=O)OC2	3.25 µM
CN(Cc1ccccc1)S(=O)(=O)c1ccc(S(=O)(=O)N2CCN(C(=O)c3cccnc3)CC2)cc1	> 50 µM (inactive)
CCc1nc(-c2cccc(NC(=O)c3ccc(C#N)cc3F)c2)no1	> 50 µM (inactive)
COc1ccc(-c2nc(SCC(=O)Nc3ccc(Cl)cc3F)n[nH]2)cc1	> 50 µM (inactive)
C[C@@H]1O[C@@H](O[C@H]2[C@H](O[C@H]3[C@H](O[C@H]4CC[C@@]5(C)[C@@H](CC[C@]6(C)[C@@H]5CC=C5[C@@H]7CC(C)(C)CC(=O)[C@]7(C)CC[C@]56C)[C@@]4(C)CO)O[C@H](C(=O)O)[C@@H](O)[C@@H]3O)OC[C@@H](O)[C@@H]2O)[C@H](O)[C@H](O)[C@H]1O	> 50 µM (inactive)
Cc1ccc(NC(=O)c2sc(=S)n(CCc3ccccc3)c2N)cc1	18 µM
